Assay results taken from PubChem BioAssay AID328 (DTP/NCI, 2004).
Inconclusive results and toxic doses are left out.

Tested on: BDF1 mice, P388 leukemia ip, median survival T/C
Experiment: NCI In Vivo Anticancer Drug Screen. Data for tumor model P388 Leukemia (intraperitoneal) in B6D2F1 (BDF1) mice
Conditions: endpoint: median survival time, higher = longer survival
How it was run: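 Antitumour effect was judged in vivo: survival in drug-treated mice, normalised to that of vehicle-dosed controls, gives the reported T/C.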

[1] = dose: 100.0 mg/kg/injection, schedule: Q01DX009 (ip), vehicle: saline with Tween-80
[2] = dose: 100.0 mg/kg/injection, schedule: Q04DX003 (ip), vehicle: saline with Tween-80
[3] = dose: 200.0 mg/kg/injection, schedule: Q04DX003 (ip), vehicle: saline with Tween-80
[4] = dose: 400.0 mg/kg/injection, schedule: Q04DX003 (ip), vehicle: saline with Tween-80
[5] = dose: 100.0 mg/kg/injection, schedule: Q01DX009 (ip), vehicle: water
[6] = dose: 50.0 mg/kg/injection, schedule: Q01DX009 (ip), vehicle: saline with Tween-80
[7] = dose: 200.0 mg/kg/injection, schedule: Q01DX009 (ip), vehicle: saline with Tween-80

In the case of CC[C@@]1(O)C(=O)OCc2c1cc1n(c2=O)Cc2cc3ccccc3nc2-1, the T/C (dose: 0.8 mg/kg/injection, schedule: Q01DX009 (ip), vehicle: saline with Tween-80) is reported as 170 % of control, the T/C (dose: 1.5 mg/kg/injection, schedule: Q01DX009 (ip), vehicle: saline with Tween-80) is reported as 195 % of control and the T/C (dose: 2.5 mg/kg/injection, schedule: Q04DX003 (ip), vehicle: saline with Tween-80) is reported as 161 % of control. The T/C (dose: 3.0 mg/kg/injection, schedule: Q01DX009 (ip), vehicle: saline with Tween-80) was 183 % of control, the T/C (dose: 3.75 mg/kg/injection, schedule: Q04DX003 (ip), vehicle: saline with Tween-80) was 176 % of control and the T/C (dose: 4.0 mg/kg/injection, schedule: Q04DX003 (ip), vehicle: saline with Tween-80) was 200 % of control. The T/C (dose: 6.0 mg/kg/injection, schedule: Q04DX003 (ip), vehicle: saline with Tween-80) was 233 % of control and the T/C (dose: 9.0 mg/kg/injection, schedule: Q04DX003 (ip), vehicle: saline with Tween-80) was 250 % of control.
In the case of Nc1ccc(N(CCCl)CCN(CCCl)c2ccc(N)cc2)cc1, the T/C (dose: 0.8 mg/kg/injection, schedule: Q01DX009 (ip), vehicle: saline) is reported as 154 % of control, the T/C (dose: 1.2 mg/kg/injection, schedule: Q01DX009 (ip), vehicle: saline) is reported as 181 % of control and the T/C (dose: 1.8 mg/kg/injection, schedule: Q01DX009 (ip), vehicle: saline) is reported as 204 % of control.
In the case of COC(=O)c1nc(-c2ccc3c(n2)C(=O)C(N)=C(OC)C3=O)c(N)c(-c2ccc(OC)c(OC)c2O)c1C, the T/C (dose: 4.0 mg/kg/injection, schedule: Q01DX009 (ip), vehicle: saline with Tween-80) is reported as 250 % of control, the T/C (dose: 6.0 mg/kg/injection, schedule: Q01DX009 (ip), vehicle: saline with Tween-80) is reported as 183 % of control and the T/C (dose: 9.0 mg/kg/injection, schedule: Q01DX009 (ip), vehicle: saline with Tween-80) is reported as 162 % of control.
With C/C(CCCCl)=N/N=C(N)N the T/C (dose: 7.03 mg/kg/injection, schedule: Q01DX001 (ip), vehicle: saline) was 104 % of control, the T/C (dose: 14.06 mg/kg/injection, schedule: Q01DX001 (ip), vehicle: saline) was 100 % of control and the T/C (dose: 18.75 mg/kg/injection, schedule: Q01DX009 (ip), vehicle: saline) was 115 % of control. For the same compound, the T/C (dose: 18.75 mg/kg/injection, schedule: Q04DX003 (ip), vehicle: saline) was 109 % of control, the T/C (dose: 37.5 mg/kg/injection, schedule: Q01DX009 (ip), vehicle: saline) was 115 % of control and the T/C (dose: 37.5 mg/kg/injection, schedule: Q04DX003 (ip), vehicle: saline) was 100 % of control. The T/C (dose: 50.0 mg/kg/injection, schedule: Q04DX003 (ip), vehicle: saline) was 122 % of control, the T/C (dose: 75.0 mg/kg/injection, schedule: Q01DX009 (ip), vehicle: saline) was 115 % of control and the T/C (dose: 75.0 mg/kg/injection, schedule: Q04DX003 (ip), vehicle: saline) was 100 % of control.
In the case of CCCn1cnc2c(=S)nc[nH]c21, the T/C [1] is reported as 108 % of control, the T/C [2] is reported as 109 % of control and the T/C [3] is reported as 118 % of control. For the same compound, the T/C [4] was 113 % of control.
In the case of c1ccc(N2CCNCC2)cc1, the T/C (dose: 6.25 mg/kg/injection, schedule: Q04DX003 (ip), vehicle: saline sonified) is reported as 95 % of control, the T/C (dose: 12.5 mg/kg/injection, schedule: Q04DX003 (ip), vehicle: saline sonified) is reported as 100 % of control and the T/C (dose: 25.0 mg/kg/injection, schedule: Q04DX003 (ip), vehicle: saline sonified) is reported as 104 % of control.
In the case of CCOc1ccn(CC(=O)N2CCOCC2)c(=O)n1, the T/C [5] is reported as 103 % of control, the T/C (dose: 200.0 mg/kg/injection, schedule: Q01DX009 (ip), vehicle: water) is reported as 105 % of control and the T/C (dose: 400.0 mg/kg/injection, schedule: Q01DX009 (ip), vehicle: water) is reported as 97 % of control.
In the case of NCCCOc1ccc([N+](=O)[O-])cc1Cl, the T/C (dose: 25.0 mg/kg/injection, schedule: Q01DX009 (ip), vehicle: saline) is reported as 105 % of control, the T/C (dose: 50.0 mg/kg/injection, schedule: Q01DX009 (ip), vehicle: saline) is reported as 105 % of control and the T/C (dose: 100.0 mg/kg/injection, schedule: Q01DX009 (ip), vehicle: saline) is reported as 104 % of control.
In the case of O=C(CC(O)(C(F)(F)F)C(F)(F)F)c1ccccc1Cl, the T/C [2] is reported as 120 % of control, the T/C [3] is reported as 100 % of control and the T/C [4] is reported as 120 % of control.
In the case of O=C(O)CNC1CSSC1, the T/C (dose: 1.56 mg/kg/injection, schedule: Q04DX003 (ip), vehicle: water) is reported as 97 % of control, the T/C (dose: 3.12 mg/kg/injection, schedule: Q01DX009 (ip), vehicle: water) is reported as 111 % of control and the T/C (dose: 3.12 mg/kg/injection, schedule: Q04DX003 (ip), vehicle: water) is reported as 88 % of control. The T/C (dose: 6.25 mg/kg/injection, schedule: Q01DX009 (ip), vehicle: water) was 101 % of control, the T/C (dose: 6.25 mg/kg/injection, schedule: Q04DX003 (ip), vehicle: water) was 93 % of control and the T/C (dose: 12.5 mg/kg/injection, schedule: Q04DX003 (ip), vehicle: water) was 88 % of control. For the same compound, the T/C (dose: 25.0 mg/kg/injection, schedule: Q01DX009 (ip), vehicle: water) was 109 % of control, the T/C (dose: 25.0 mg/kg/injection, schedule: Q04DX003 (ip), vehicle: water) was 94 % of control and the T/C (dose: 50.0 mg/kg/injection, schedule: Q01DX009 (ip), vehicle: water) was 108 % of control. The T/C (dose: 50.0 mg/kg/injection, schedule: Q04DX003 (ip), vehicle: water) was 86 % of control and the T/C [5] was 91 % of control.
With CC(C)c1c[nH]c(=O)[nH]c1=O the T/C (dose: 100.0 mg/kg/injection, schedule: Q01DX001 (ip), vehicle: saline) was 100 % of control, the T/C (dose: 100.0 mg/kg/injection, schedule: Q04DX003 (ip), vehicle: Klucel (hydroxypropylcellulose) (HPC)) was 104 % of control and the T/C (dose: 200.0 mg/kg/injection, schedule: Q01DX001 (ip), vehicle: saline) was 95 % of control. For the same compound, the T/C (dose: 200.0 mg/kg/injection, schedule: Q04DX003 (ip), vehicle: Klucel (hydroxypropylcellulose) (HPC)) was 90 % of control, the T/C (dose: 400.0 mg/kg/injection, schedule: Q01DX001 (ip), vehicle: saline) was 100 % of control and the T/C (dose: 400.0 mg/kg/injection, schedule: Q04DX003 (ip), vehicle: Klucel (hydroxypropylcellulose) (HPC)) was 104 % of control.
S=C(NCCNC(=S)[S][Sn]([c]1ccccc1)([c]1ccccc1)[c]1ccccc1)[S][Sn]([c]1ccccc1)([c]1ccccc1)[c]1ccccc1 was tested, and the T/C (dose: 3.3 mg/kg/injection, schedule: Q01DX009 (ip), vehicle: saline with Tween-80) was 100 % of control, the T/C (dose: 5.0 mg/kg/injection, schedule: Q01DX009 (ip), vehicle: saline with Tween-80) was 117 % of control and the T/C (dose: 7.5 mg/kg/injection, schedule: Q01DX009 (ip), vehicle: saline with Tween-80) was 108 % of control. For the same compound, the T/C [6] was 115 % of control.
With CC1CCC2C(C)C(=O)OC2C2(C)C(=O)C=CC12 (stereo not given) the T/C (dose: 6.4 mg/kg/injection, schedule: Q01DX009 (ip), vehicle: alcohol) was 106 % of control, the T/C (dose: 9.6 mg/kg/injection, schedule: Q01DX009 (ip), vehicle: alcohol) was 100 % of control and the T/C (dose: 14.0 mg/kg/injection, schedule: Q01DX009 (ip), vehicle: alcohol) was 122 % of control. The T/C (dose: 22.0 mg/kg/injection, schedule: Q01DX009 (ip), vehicle: alcohol) was 108 % of control.
With O=C1C(=C2CCCCC2)SC(=S)N1c1ccccc1 the T/C [6] was 106 % of control, the T/C [1] was 103 % of control and the T/C [7] was 103 % of control.
O=c1c2ccccc2nnn1Cc1ccco1 was tested, and the T/C (dose: 50.0 mg/kg/injection, schedule: Q01DX005 (ip), vehicle: saline with Tween-80) was 99 % of control and the T/C (dose: 200.0 mg/kg/injection, schedule: Q01DX005 (ip), vehicle: saline with Tween-80) was 89 % of control.
In the case of O=C(NNC(=O)C12CC3CC(CC(C3)C1)C2)c1ccncc1, the T/C [6] is reported as 96 % of control, the T/C [1] is reported as 101 % of control and the T/C [7] is reported as 92 % of control.
CCOC(=S)SCC(=O)Nc1ccc(I)cc1 was tested, and the T/C (dose: 15.0 mg/kg/injection, schedule: Q01DX009 (ip), vehicle: saline with Tween-80) was 93 % of control, the T/C (dose: 30.0 mg/kg/injection, schedule: Q01DX009 (ip), vehicle: saline with Tween-80) was 95 % of control and the T/C (dose: 60.0 mg/kg/injection, schedule: Q01DX009 (ip), vehicle: saline with Tween-80) was 98 % of control.
